Consider two compounds from patent US7923468B2, “1,4-benzothiepin-1,1-dioxide derivatives which are substituted with cyclohexyl groups, method for producing the same, drugs containing said compounds and use thereof” (Sanofi-Aventis Deutschland GmbH, priority 2006, dated 2011).

For the test, the target named is T1, human IBAT (Homo sapiens, UniProt Q12908).
T1 construct: Bases 599 to 1645 correspond to the complete coding region of human IBAT; expressed in transfected cells
T1 sequence (Q12908 1-348): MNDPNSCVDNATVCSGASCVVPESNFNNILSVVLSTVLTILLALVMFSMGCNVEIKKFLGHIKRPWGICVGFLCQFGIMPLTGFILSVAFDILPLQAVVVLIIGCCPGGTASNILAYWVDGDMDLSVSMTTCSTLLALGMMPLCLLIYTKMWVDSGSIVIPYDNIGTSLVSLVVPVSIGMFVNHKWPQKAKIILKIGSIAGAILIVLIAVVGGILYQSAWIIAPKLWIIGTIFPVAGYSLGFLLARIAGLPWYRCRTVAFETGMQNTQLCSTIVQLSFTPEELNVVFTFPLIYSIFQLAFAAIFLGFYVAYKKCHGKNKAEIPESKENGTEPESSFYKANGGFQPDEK
Kind of test: In vitro IBAT inhibition assay: uptake of [3H]-taurocholic acid into CHO-hIBAT cells. It is filed as cell-based. The note with it: taurocholic acid 10 μM, 60 min at room temperature, read-out: IC-50 (human IBAT). An excerpt:
Preparation and Procedure for the In Vitro IBAT Inhibition Assay:
• 1. Cloning of an Expression Vector for Human IBAT
The cDNA (complementary deoxyribonucleic acid) of human IBAT was cloned by standard methods of molecular biology as described for example in Molecular Cloning: A Laboratory Manual by Joseph Sambrook and David Russell, and introduced into the pcDNA1 vector from Invitrogen. […] Bases 599 to 1645 correspond to the complete coding region of human IBAT. • 2. Preparation of a Recombinant Cell Line with Constitutive Expression of Human IBAT
The expression vector for human IBAT was introduced by stable transfection into CHO (chinese hamster ovary) cells. […]
CHO-hIBAT cells were seeded in a concentration of 40 000 cells per well in poly-D-lysine-coated 96-well plates in cell culture medium and cultured for 24 h. […] Finally, 100 μl of scintillation fluid were added to each well, and the radioactivity taken up into the cells was determined in a MicroBeta Scintillation Microplate Reader from Wallac.
The half-maximum inhibitory effect of the test compound (IC50 value, inhibitory concentration 50) was determined in the following way: • 1. […] This is the measurement in the absence of substance, measured in sodium-containing transport assay buffer. • 2. […] This is the measurement in the absence of substance, measured in sodium-free transport assay buffer. • 3. […]

pIC50: −log10 of the molar value.

Turning to `CCCC[C@]1(CC)CS(=O)(=O)c2ccc(N(C)C)cc2[C@@H](c2cccc(NC(=O)N[C@@H]3[C@@H](O)[C@H](OCc4ccccc4)[C@@H](O)[C@H](OCc4ccccc4)[C@H]3O)c2)[C@H]1O` [Example 1], the pIC50 was 8.38.

On to `CCCC[C@]1(CC)CS(=O)(=O)c2ccc(N(C)C)cc2[C@@H](c2cccc(NC(=O)N[C@@H]3[C@@H](OS(=O)(=O)O)[C@H](OCc4ccccc4)[C@@H](OS(=O)(=O)O)[C@H](OCc4ccccc4)[C@H]3OS(=O)(=O)O)c2)[C@H]1O` [Example 2], for which the pIC50 is 7.80.
